Measured values as given in PubChem BioAssay AID179 (DTP/NCI, 2004).
Where “and” joins values, the source holds several entries; their conditions need not be identical. Equal values may be shown once. Calls of active or inactive are those of the source.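 The calls were made as follows: active = compounds giving half or more protection of infected cells from virus-caused growth loss, again on retest; inactive = the rest.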 Where a SMILES comes first, the peptide text is derived from it. The star is where a group is joined. Cbz = O=C(OCc1ccccc1)*

Test system: CEM cells HIV-1 protection, formazan growth assay
Test: NCI AIDS Antiviral Assay
Details: for IC50: measured here: growth of uninfected CEM cells
Procedure, shortened: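 Soluble formazan readout of cell growth; CEM cells ± HIV-1; 5 drug concs. ≥50% protection → retest; ≥50% again = moderately active; reproducible 100% = confirmed active.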

Compound | EC50 [µM] | IC50 | outcome
CCC(C)C(NC(=O)C(NC(=O)C(CC(N)=O)NC(=O)CN)C(C)O)C(=O)NC(C(=O)NC(C)C(=O)NC(C(=O)NC(CCC(=O)O)C(=O)NC(CC(C)C)C(=O)NC(CC(=O)O)C(=O)NC(C(=O)NC(Cc1ccc(O)cc1)C(=O)N1CCCC1C(=O)O)C(C)O)C(C)C)C(C)C (stereo unspecified) (H-GNTIVAVELDTYP-OH; configuration not given here) | 30.9 | 50.1 µM | –
O=C1CC23CC(=O)CC2(C1)c1ccccc1C3=O (stereo unspecified) | > 389 | > 389 µM | –
CC(C)=CC(=O)N1CC(C)Cn2c(=S)[nH]c3cccc1c32 (stereo unspecified) | > 200 | > 200 µM | –
c1ccc(-c2nc3n(n2)CCC(c2ccccc2)S3)cc1 (stereo unspecified) | 45.7 | > 200 µM | –
NC(N)=NS(=O)(=O)c1ccc(-n2sc3ccccc3c2=O)cc1 | 4.37 | 19.1 µM | –
COC(=O)/C(C#N)=C1\NC(=O)c2ccccc21 | > 83.2 | > 83.2 µM | –
CCS(=O)(=O)c1cc(=O)[nH]c(=O)[nH]1 | 100 | 240 µM | –
N=c1c2c(ncn1N)Oc1c(c(-c3ccccc3)nn1-c1ccccc1)C2c1ccc(Cl)cc1 (stereo unspecified) | > 200 | 2.09 µM | –
C#CC(OC(=O)NC1CCCCC1)(c1ccccc1)c1ccccc1 | > 200 | 20.4 µM | –
CC1=NN(C(=O)CC(=O)Nc2ccccc2)C(=O)C1N=Nc1ccc(C(=O)O)cc1 (stereo unspecified) | > 200 | 58.9 µM | –
CC1C2=C(CC(C)(C)CC2=O)NC2=C1C(=O)CC(C)(C)C2 | > 200 | 166 µM | –
COC(=O)C(COC(=O)/C=C/c1ccc(OC(C)=O)c(OC(C)=O)c1)OC(=O)/C=C/c1ccc(OC(C)=O)c(OC(C)=O)c1 (stereo unspecified) | > 200 | 25.7 µM | –
CC[C@]12C=CCN3CCC4(c5cc([C@]6(C(=O)OC)C[C@H]7CN(CCc8c6[nH]c6ccccc86)C[C@@H]6CCCC[C@H]76)c(OC)cc5N(C)C4[C@@](O)(C(=O)OC)C1OC(C)=O)[C@@H]32 (stereo partly specified) | > 240 | 1.32 µM | –
O=C1OC2(O)c3ccccc3C(=O)N2N2CCCC12 (stereo unspecified) | > 692 | > 692 µM | –
O=c1[nH]c(=O)c2[nH]c(=O)[nH]c(=O)c2[nH]1 | > 200 | > 200 µM | –
CC1=C(C(=O)Nc2cccc(Cl)c2)C(c2ccc([N+](=O)[O-])cc2)C(C(=O)Nc2cccc(Cl)c2)=C(C)N1 | > 9.77 | 7.94 µM | –
NC(N)=N/N=C(/CC1OC(=O)c2ccccc21)c1ccc2ccccc2c1 (stereo unspecified) | > 28.2 | > 28.2 µM | –
C1CSCC2(COC2)CSCCSCC2(COC2)CS1 | > 14.8 | > 14.8 µM | –
O=C1NC(O)c2cc(Cl)ccc2O1 (stereo unspecified) | – | – | inactive
Cc1ccc(N2CN(c3ccc(C)cc3)CC(C)(N)C2)cc1 | > 200 | 24 µM | –
CC(C)(O)/C=C\P(C)(=O)c1ccccc1 (stereo unspecified) | > 200 | > 200 µM | –
COC(=O)C(NC(=O)C(C)NC(=O)C1CCCN1C(=O)CNC(=O)C(CO)NC(=O)C(NC(=O)OCc1ccccc1)C(C)O)C(C)O (stereo unspecified) (Cbz-TSGPAT-OMe; configuration not given here) | > 363 | > 363 µM | –

Compound | EC50 [µM] | IC50 | outcome
O=C(O)c1ccccc1P12(OC(=O)c3ccccc31)OC(=O)c1ccccc12 | > 209 | 170 µM | –
CC(C)(Oc1ccc(Cl)cc1)C(=O)N(C(=O)N1CCC(c2ccccc2)CC1)c1ccccc1 | > 200 | 7.41 µM | –
C=CCNC(=O)NC(=O)CSC1=NNC2(C(=O)N1)c1ccccc1-c1ccccc12 | > 200 | 29.5 µM | –
C=C1OC(=O)[C@]2([C@@H](/C=C/C)C=CC(=O)[C@H]2O)[C@@H]1O | > 200 | > 200 µM | –
CC1C(=O)CC(c2cccs2)N(N=O)C1c1cccs1 (stereo unspecified) | > 117 | 77.6 µM | –
Cc1cc(C)c2c(c1)sc1nncn12 | – | – | inactive
O=C1CCCc2ccc([N+](=O)[O-])c(O)c21 | – | – | inactive
CCc1cccc(CC)c1Nc1nc(-c2ccccc2-c2ccccc2)cs1 | > 200 | > 200 µM | –
CCCCCC/C=C\CCCCCCCCC(=O)c1cccc(OC)c1OC | > 200 | > 200 µM | –
C[C@@H](c1ccccc1)n1c(N)c(C#N)c2ccc([N+](=O)[O-])cc2c1=O | > 200 | 12.3 µM | –
CC(C)=CCc1c(O)cc(O)c2c1OC(c1ccc(O)cc1)C(O)C2=O (stereo unspecified) | > 363 | 17.8 µM | –
CC1(O)OC(=O)c2ccc3ccccc3c21 (stereo unspecified) | > 398 | > 398 µM | –
CN=C(NC)c1ncn(C2OC(CO)C(O)C2O)n1 (stereo unspecified) | – | – | inactive
OCC(O)COc1ccc(F)cc1 (stereo unspecified) | > 1350 | > 1350 µM | –
O=C1c2ccccc2C(=O)c2c1ccc1c2[nH]c2ccccc21 | – | – | inactive
CC1=C(c2cc(C(=O)Nc3cccc(C(F)(F)F)c3)ncn2)Sc2ccccc2N1 | > 83.2 | > 83.2 µM | –
CCN(CC)CCNC(=O)c1nn(-c2ccc(Cl)cc2)c2c1CCc1cc(OC)ccc1-2 | > 91.2 | 5.01 µM | –
COc1ccc(/C(C)=N\N)cc1 | > 200 | > 200 µM | –
COC(=O)C1=C2Nc3ccccc3[C@@]23CCN(Cc2ccccc2)C3C[C@H]1c1ccoc1 (stereo partly specified) | > 29.5 | > 29.5 µM | –
CCc1ccccc1N=NC(=O)NNc1ccccc1CC | > 200 | 70.8 µM | –
O=C1CC2OCC=C3CN4CCC5(C(=O)O)C(N1)C2C3CC45 (stereo unspecified) | > 813 | > 813 µM | –
C=CCOc1ccccc1C1(O)c2ccccc2C2=NCCCN21 (stereo unspecified) | > 200 | 40.7 µM | –

Compound | EC50 [µM] | IC50 | outcome
CN(C)CCNC(=O)c1cccc2c(NCCN(C)C)c3ccccc3nc12 | > 20 | 2.09 µM | –
Cc1ccc(NC(=O)CCc2nnc3s/c(=C\c4cccc([N+](=O)[O-])c4)c(=O)n23)cc1 | > 1.74 | > 1.74 µM | –
N[C@@H](CSS[C@H](C(=O)O)[C@@H](SSC[C@H](N)C(=O)O)C(=O)O)C(=O)O | > 200 | 35.5 µM | –
CCN(CC)CCC(=O)c1ccc(Oc2ccc(Cl)cc2)cc1 | > 200 | 30.2 µM | –
N#CCCN(CCC#N)c1ccc(/C=C2\CC(O)(c3ccccc3)NC2=O)cc1 (stereo unspecified) | > 7.08 | > 7.08 µM | –
COC(=O)C(=O)Cc1nc2ccccc2s1 | – | – | inactive
CC1=Nc2ccc([N+](=O)[O-])cc2N=C(C)C1 | > 200 | > 200 µM and 126 µM | –
CC1=NC(=Cc2cc(Br)cc(Br)c2)C(=O)N1n1c(-c2ccccc2)nc2ccccc2c1=O | > 200 | 87.1 µM | –
CCC1(CC=C(C)C)Oc2ccccc2-n2cccc2C1=O (stereo unspecified) | – | – | active
O=S(=O)([O-])[O-].[OH3+].[OH3+].[OH3+].[Ru+2].c1ccccc1 | > 79.4 | > 79.4 µM | –
CC(=O)Nc1ccc(S(=O)(=O)N/N=C(/C)C2CCOC2=O)cc1 (stereo unspecified) | > 741 | > 741 µM | –
CC(=O)/C(=C/c1ccc(Cl)cc1)C(=O)c1ccccc1 | > 66.1 | 11.7 µM | –
O=C(Nc1ccc2oc(=O)c(C(=O)O)cc2c1)Oc1ccccc1 | > 282 | > 282 µM | –
Cn1c(=O)c2c(ncn2CC(=O)NC23CC4CC(CC(C4)C2)C3)n(C)c1=O | – | – | inactive
O=C(/C=C/c1ccccc1)c1cc(CN2CCOCC2)c(O)c(CN2CCOCC2)c1 | > 200 | 8.51 µM | –
NC(C(=O)O)C(CC(=O)O)c1ccccc1 (stereo unspecified) | > 200 | 112 µM and > 200 µM | –
Cc1ccc(C)c(NC(=O)C(=O)C(c2cnc3ccc([N+](=O)[O-])cc3n2)[N+](=O)[O-])c1 (stereo unspecified) | > 123 | > 123 µM | –
CCOC(=O)c1c[nH]cc1-c1cn(S(=O)(=O)c2ccccc2)cc1C | > 200 | 50.1 µM | –
CC(C)CN1CC(=O)N2Cc3ccccc3CN2C(=O)C1 | > 200 | > 200 µM | –
Cc1cc(-c2ccccc2)oc(=O)c1NC(=O)c1cnccn1 | > 200 | 141 µM | –
COC(=O)CCCC=C(c1cc(Br)c(OC)c(C(=O)OC)c1)c1cc(Br)c(OC)c(C(=O)OC)c1 | 1.82 | 42.7 µM | –
N#Cc1c(Cl)c2cccnc2n2c1nc1ccccc12 | > 200 | 0.339 µM | –

Compound | EC50 [µM] | IC50 | outcome
Cc1cc2ncn(C3CCCCO3)c2cc1C (stereo unspecified) | > 200 | > 200 µM | –
Nc1nc(Cl)c(C=O)c(NCC2(CO)CCC2)n1 | > 200 | 2.88 µM | –
Oc1ccc(-c2c3ccccc3c(-c3ccc(OCCBr)cc3)c3ccccc23)cc1 | > 100 | > 100 µM | –
O=[N+]([O-])c1ccc(C2=Nc3ccccc3SC(c3ccccc3)C2)cc1 (stereo unspecified) | > 27.5 | > 27.5 µM | –
COc1ccc(/C=C2/CSCC3=C2NC(=S)NC3c2ccc(OC)c(OC)c2OC)c(OC)c1OC (stereo unspecified) | > 200 | 8.51 µM | –
COc1cc2cc(OC)c3cc4c(cc3c2c(OC)c1OC)OCO4 | > 39.8 | > 39.8 µM | –
COC1/C=C\OC2(C)Oc3c(C)c(O)c4c(O)c(cc(OCC(=O)N(C)Cc5ccccc5)c4c3C2=O)NC(=O)/C(C)=C\C=C/C(C)C(O)C(C)C(O)C(C)C(OC(C)=O)C1C (stereo unspecified) | > 200 | 39.8 µM | –
CC1CC/C(=C\c2ccc(F)cc2)C2=C1C(c1ccc(F)cc1)n1c(s/c(=C\c3ccc(Cl)cc3)c1=O)=N2 (stereo unspecified) | – | – | inactive
CC(C)(C)Cc1cssc1=S | > 200 | > 200 µM | –
CCOC(=O)c1sc(N/N=C2\NC(=O)/C(=C/c3ccc([N+](=O)[O-])cc3)S2)nc1C | > 200 | 135 µM | –
CCOc1ccccc1NC(=O)C1=C(C)NC(C)=C(C(=O)Nc2ccccc2OCC)C1c1cccc([N+](=O)[O-])c1 | > 12.9 | > 12.9 µM | –
COc1ccc(-c2cc(C(=O)Nc3ccc(C)c(C)c3)nc(NC#N)n2)cc1 | > 339 | > 339 µM | –
CCOC(=O)/C(=N\O)C1=CSC2=NNC(C)(C)N12 | > 200 | 115 µM | –
C/C(=N\N=C(/[Se])N1CCCCCC1)c1ccccn1 | > 81.3 | 0.107 µM | –
Cc1cn(C2CC3C(COC(=O)N3O)O2)c(=O)[nH]c1=O (stereo unspecified) | 50.1 | > 200 µM | –
CCOC(CN(C)C(=O)Nc1cccc2ccccc12)OCC | > 200 | 178 µM | –
NC(=O)NCOC(=S)SSSC(=S)OCNC(N)=O | > 200 | 32.4 µM | –
O=C1CC2CC(CC3(CO3)C2)C1F (stereo unspecified) | > 200 | > 200 µM | –
NC(=O)N/N=C1/CCCCC1c1ccccc1 (stereo unspecified) | > 407 | > 407 µM | –
